In US7498127B2, “Method of screening cell growth inhibitor and cell growth inhibitor” (priority 2002, dated 2009):

Tested on: nuclear export of the PLZF protein
Assay: Inhibitory effect against the nuclear export of the PLZF protein by processing (CFP-PLZF in nucleus, TPA treatment)
Type: cell-based, Human
Conditions: HT1080/HB-EGF transfected with CFP-PLZF; 100 nM TPA 60 min in copresence of LMB 10 ng/ml; FIG. 7
Procedure: Each transfectant containing CFP-PLZF was cultured for 24 hours, and then 100 nM TPA was added thereto for treatment for 60 min. The number (N) of the cells expressing CFP-PLZF in the nucleus and the number (C) of the cells in which CFP-PLZF has leaked into the cytoplasm are counted under observation with a fluorescent microscope before and after the TPA treatment, and the ratio of the number (N) of the cells expressing CFP-PLZF in the nucleus to the total number (N+C) of the cells expressing CFP-PLZF is calculated and thus obtained (N/(N+C)×100 (%)). The wild-type HT1080 cells (the above described 1)) were used as the control for comparison.
HT1080/HB-EGF to which CFP-PLZF had been transfected (see Test Example 3) was cultured for 24 hours, and then treated with 100 nM TPA in the copresence of LMB (10 ng/ml) for 60 min. The number of the cells expressing CFP-PLZF in the nucleus was measured with a microscope before and after the TPA treatment and the ratio was calculated.
As the control, the ratio of the number of the cells expressing CFP-PLZF before and after the TPA treatment when the TPA treatment was performed without adding LMB was obtained, and compared with the ratio when LMB was added. Thus, the compound LMB to be tested was evaluated. • 3. Test Results

## CCC(=C/[C@H](C)C/C=C/C(C)=C/[C@@H](C)C(=O)[C@@H](C)[C@H](O)[C@@H](C)C/C(C)=C/C(=O)O)/C=C/[C@@H]1OC(=O)C=C[C@@H]1C [LMB, reptomycin B]
  inhibition of the nuclear export of the PLZF protein (ratio of cells expressing CFP-PLZF in the nucleus before and after TPA treatment): inhibited the nuclear export of the PLZF protein
